Consider two compounds from patent publication EP0357369B1, “The use of asymetric membranes in delivery devices” (priority 1988, dated 1990).

≈ marks a conversion by molar mass, not a printed value. Where two headings read alike, the source gives them in different places.

A short description of data set [1]: Drug solubility in receptor solutions and excipient solutions. Format: physicochemical.
Data set [2] in a line: Osmotic pressure of saturated solutions of drug and excipients. The following applies: saturated solution of the labelled drug or of drug and the other tablet excipients; also printed as about 3 atm. The data set is classed as physicochemical.

Take `COc1cc2c(N)nc(N3CCN(C(=O)OCC(C)(C)O)CC3)nc2c(OC)c1OC` [trimazosin]: the “Trimazosin solubility lower in a saturated calcium lactate solution than in water” value in data set [1] is listed as “about 40%”. The “solubility of trimazosin in the magnesium sulfate solution” value in data set [1] (2.4-wt% magnesium sulfate solution compared with water) is reported as “the same as the trimazosin solubility in water”. Moreover, the solubility of trimazosin entry in data set [1] (water and 4 wt% magnesium sulfate solution) was “the same in both solutions”. The “osmotic pressure of a saturated solution” value in data set [2] is “about 304 kPa”.
Consider `COc1cc2nc(N3CCN(C(=O)C4COc5ccccc5O4)CC3)nc(N)c2cc1OC` (centres unmarked) [doxazosin], for which the solubility in data set [1] (aqueous buffer, gastric buffer pH 1.5, read-out: Doxazosin solubility in the gastric buffer) is about 250 µg/mL (≈ 0.554 mM); in data set [1] (aqueous buffer, intestinal buffer pH 7.5, read-out: Doxazosin solubility in the intestinal buffer), under 10 µg/mL; in data set [1] (dextrose solutions adjusted to pH 4 with tartaric acid, read-out: doxazosin solubility in all the dextrose solutions), about 10000 µg/mL (≈ 22.1 mM); in data set [1] (water, same in lactose and dextrose solutions adjusted to pH 4 with tartaric acid, read-out: doxazosin solubility in water), 10000 µg/mL (≈ 22.1 mM).
